Test results taken from EP1038880B1, “Androstanes and pregnanes for allosteric modulation of GABA receptor” (priority 1994, dated 1995).
“And” between values parts separate entries of the source, which are not always exact repeats. Equal entries are not always repeated.

Key:
[1] = tested on: metrazol induced convulsions; test: animal or person; format: in vivo, mice; conditions: for responders at 10 mg/kg: Mus musculus, 10 min, 10 minutes prior to metrazol (85 mg/kg), read-out: % Protected
Method: Experiments were also performed to determine the physiological relevance of neuroactive steroid and GABA receptor interactions by assessing the ability of the compounds of and used in the invention to prevent metrazol induced convulsions in mice. Mice were injected with various doses of the test compounds of the invention, 10 minutes prior to the injection of metrazol. The time to onset of myoclomis (presence of forelimb clonic activity) induced by metrazol was determined by observing each mouse for a period of 30 minutes. […] Table 6: Antimetrazol Activity of Neuroactive Steroids in Mice
The anticonvulsant tests are similar to that described above. […] The number of animals with tonic and/or clonic convulsions was recorded. In the maximal electroshock test, 50 mA of current at 60 Hz was delivered through corneal electrodes for 200 msec to induce tonic seizure. The ability of compounds to abolish the tonic component was defined as the endpoint. General CNS depression potential was determined by a rotorod test 10 minutes after the injection of compounds where the number of mice staying on a rotating (6 rpm) rod for 1 minute in one of the three trials was determined. […] Table 7. Anticonvulsant Activity of Exemplified Neuroactive Steroids and those of Selected Clinically Useful Anticonvulsants in Mice

[2] = tested on: N.I.H. Swiss-Webster mice; test: Elevated plus-maze; format: in vivo; conditions: for response vs control in vivo at 10 mg/kg: Mus musculus, ip, read-out: % Control
Text: The theoretical basis for the elevated plus-maze test is similar to that of the light/dark transition test. […] The apparatus consists of two open-arms and two enclosed-arms. The elevated plus-maze test allows for two measures of anxiety, the number of entries into the open-arms and the time spent on the open-arms, both expressed as a percentage of the total number of entries and time spent in/on both the open-arms and enclosed-arms.
Male N.LH. Swiss-Webster mice (Harlan, Indianapolis, IN) weighing 15-20 g were housed four per cage in polyethylene cages with sawdust bedding. The colony mom was environmentally controlled (22°C) with a 12^- hr light/dark cycle (0600-1800 hr). Food and water were available ad libitum, except during testing. The experiments were run from 0700-1500 hr and groups were counterbalance for time of day effects. Mice were only administered drug or vehicle once.
The apparatus included two open arms perpendicular to two enclosed arms elevated 50 cm from the floor. Each arm was 50 cm long and the walls of the enclosed arms were 40 cm tall. The maze was made completely of black plexiglass. Incandescent 200 W light bulbs were above each of the open arms to produce a strong contrast between the open arms and the enclosed arms.
Ten minutes after an injection, the N.I.H. Swiss-Webster mice were placed in the center of the plus-maze facing an open arm. During the 5 min test period, the number of entries onto the open arms and the enclosed arms, and the time spent in the open arms and enclosed arms were measured. All four paws had to be within an arm for the dependent variable to be measured. Therefore, the time spent in the center of the maze is not counted, so the total time spent in the open arms and the enclosed arms may not equal 5 min.

[3] = molecular target: GR complex; test: [35S]TBPS binding assay (inhibition of [35S]TBPS binding, cerebral cortex P2 homogenate); parameters: species or system rat; conditions: for IC50: 2 nM [35S]TBPS, rat cerebral cortex P2 homogenate; for IMAX: maximum inhibition of [35S]TBPS binding
How it was run: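 Rat (male Sprague-Dawley) cortical P2 homogenate (0.5 mg protein) in 50 mM Na/K phosphate pH 7.4, 200 mM NaCl, incubated with 2 nM [35S]TBPS plus steroid test compounds (DMSO) in presence of GABA plus (+)bicuculline, 25°C, 90 min. Filtration, scintillation counting; nonspecific binding defined with […].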

SMILES	IC50 [3]	IMAX [3]	responders at 10 mg/kg ([1]; IP, 10 mg/kg) [%]	response vs control in vivo at 10 mg/kg [2] [%]	further results
CC(=O)c1ccc(C#CC2(O)CCC3(C)C(CCC4C3CCC3(C)C(C(=O)COC(=O)CCC(=O)[O-])CCC43)C2)cc1.[Na+] (stereo not drawn) [3β-(4'-Acetylphenylethynyl)-3α,21-dihydroxy-5β-pregnan-20-one 21-hemisuccinate sodium salt]	–	–	–	–	% Protected ([1]; PO, 10 mg/kg, water): 75%; % Control ([2]; PO, 10 mg/kg, water): 248%
COc1ccccc1C#C[C@@]1(O)CC[C@@]2(C)[C@H](CC[C@@H]3[C@@H]2CC[C@]2(C)[C@@H](C(C)=O)CC[C@@H]32)C1 [3α-hydroxy-3β-(2'-methoxyphenyl)ethynyl-5β-pregnan-20-one]	238 nM	99%	12.5	152	–
C[C@]12CC[C@@H](O)C[C@H]1CC[C@@H]1[C@@H]2CC[C@]2(C)[C@@H](C(=O)CSS(=O)(=O)[O-])CC[C@@H]12.[Na+] [sodium S-(3α-hydroxy-5β-pregnan-20-on-21-yl) thiosulfate]	268 nM	88%	37.5	143	–
Cc1cc(C)n(CC(=O)[C@H]2CC[C@H]3[C@@H]4CC[C@@H]5C[C@H](O)CC[C@]5(C)[C@H]4CC[C@]23C)n1 [3α-hydroxy-21-(1H-3,5-dimethylpyrazolyl)-5β-pregnan-20-one]	96 nM	77%	50	128	–
CC(=O)[C@H]1CC[C@H]2[C@@H]3CC[C@@H]4C[C@@](O)(C#Cc5ccc(-c6ccccc6)cc5)CC[C@]4(C)[C@H]3CC[C@]12C [3β-(4'-biphenylethynyl)-3α-hydroxy-5β-pregnan-20-one]	43 nM	83%	0	111	–
C[C@]12CC[C@@H](O)C[C@H]1CC[C@@H]1[C@@H]2CC[C@]2(C)[C@@H](C(=O)Cn3cccn3)CC[C@@H]12 [3α-hydroxy-21-(pyrazol-1-yl)-5β-pregnan 20-one]	121 nM	67%	62.5	129	–
CC(=O)C1CCC2C3CCC4CC(OC(=O)c5ccc(Cl)cc5)CCC4(C)C3CCC12C (stereo not shown) [4-Chlorophenyl]	–	–	–	–	% Protection ([1]; 60 mg/kg, 1hr, IP): 50%
C[C@@]1(O)CC[C@@]2(C)[C@@H](CC[C@@H]3[C@@H]2CC[C@]2(C)[C@@H](C(=O)Cn4cccn4)CC[C@@H]32)C1 [3α-hydroxy-21-(1'-pyrazolyl)-3β-methyl-5α-pregnan-20-one]	115 nM	98%	87.5	154	–
CC12CCC3C4CCC(O)(C(F)(F)F)CC4CCC3C1CCC2C(=O)CSS(=O)(=O)[O-].[Na+] (stereo not drawn) [Sodium S-(3α-hydroxy-3β-trifluoromethyl-5β-19-norpregnan-20-on-21-yl) thiosulfate]	325 nM	98%	–	–	% Protected ([1]; IP, 40 mg/kg, water): 37.5%
CCCCC(=O)OC1CCC2(C)C(CCC3C2CCC2(C)C(C(C)=O)CCC32)C1 (stereo not shown) [Butyl]	–	–	–	–	% Protection ([1]; mouse, in vivo): 33%
C[C@]12CC[C@@H](O)C[C@H]1CC[C@@H]1[C@@H]2CC[C@]2(C)[C@@H](C(=O)Cn3nccn3)CC[C@@H]12 [3α-hydroxy-21-(2H-1,2,3-triazol-2-yl)-5β-pregnan-20-one]	56 nM	79%	100	164	–
C#C[C@@]1(O)CC[C@@]2(C)[C@H](CC[C@@H]3[C@@H]2CC[C@]2(C)[C@@H](C(=O)Cn4cccn4)CC[C@@H]32)C1 [3β-ethynyl-3α-hydroxy-21-(1'-pyrazolyl)-5β-pregnan-20-one]	106 nM	99%	62.5	180	–
CC(=O)c1ccc(C#C[C@@]2(O)CC[C@@]3(C)[C@H](CC[C@@H]4[C@@H]3CC[C@]3(C)[C@@H](C(=O)CO)CC[C@@H]43)C2)cc1 [3β-(4'-acetylphenylethynyl)-3α,21-dihydroxy-5β-pregnan-20-one]	22 nM	99%	75	115	–
CC(=O)C1CCC2C3CCC4CC(O)(C#CC(C)O)CCC4(C)C3CCC12C (racemic) [3β-[3'(R/S)-hydroxy-1'-butynyl]-3α-hydroxy-5α-pregnan-20-one]	144 nM and 202 nM	99% and 102%	50	–	–
C#C[C@@]1(O)CC[C@@]2(C)[C@H](CC[C@@H]3[C@@H]2CC[C@]2(C)[C@@H](C(=O)Cn4ccnc4)CC[C@@H]32)C1 [3β-ethynyl-3α-hydroxy-21-(1'-imidazolyl)-5β-pregnan-20-one]	80 nM	103%	50	179	–
CC(=O)[C@H]1CC[C@H]2[C@@H]3CC[C@H]4C[C@H](OC(=O)c5ccccc5)CC[C@]4(C)[C@H]3CC[C@]12C [Phenyl]	–	–	–	–	% Protection ([1]; 60 mg/kg, 1hr, IP): 33%
CC(=O)c1ccc(C#CC2(O)CCC3(C)C(CCC4C3CCC3(C)C(C(=O)CO)CCC43)C2)cc1 (stereo not drawn) [3β-(4'-Acetylphenylethynyl)-3α-21-dihydroxy-5α-pregnan-20-one]	4 nM	92%	–	–	% Protected ([1]; IP, 1 mg/kg, 50% hpbcd): 87.5%; % Control ([2]; IP, 1 mg/kg, 50% hpbcd): 150%
CCCC(=O)OC1CCC2(C)C(CCC3C2CCC2(C)C(C(C)=O)CCC32)C1 (stereo not shown) [Propyl]	–	–	–	–	% Protection ([1]; 60 mg/kg, 1hr, IP): 75%
COc1ccc(C(=O)OC2CCC3(C)C(CCC4C3CCC3(C)C(C(C)=O)CCC43)C2)cc1 (stereo not shown) [4-Methoxyphenyl]	–	–	–	–	% Protection ([1]; 60 mg/kg, 1hr, IP): 17%
CC(=O)OC1CCC2(C)C(CCC3C2CCC2(C)C(C(C)=O)CCC32)C1 (stereo not shown) [Methyl]	–	–	–	–	% Protection ([1]; 60 mg/kg, 1hr, IP): 25%
CC(=O)OCCCC#C[C@@]1(O)CC[C@@]2(C)[C@H](CC[C@@H]3[C@@H]2CC[C@]2(C)[C@@H](C(C)=O)CC[C@@H]32)C1 [3β-(5'-Acetoxy-1'-pentynyl)-3α-hydroxy-5β-pregnan-20-one]	96 nM	98%	12.5	–	–
CCCC(CCC)C(=O)OC1CCC2(C)C(CCC3C2CCC2(C)C(C(C)=O)CCC32)C1 (stereo not shown) [Example 4-Heptyl]	–	–	–	–	% Protection ([1]; 60 mg/kg, IP, 4 hour): 16 (4 hour) %
CC(=O)c1ccc(C#C[C@@]2(O)CC[C@@]3(C)[C@@H](CC[C@@H]4[C@@H]3CC[C@]3(C)[C@@H](C(=O)COC(=O)CCC(=O)[O-])CC[C@@H]43)C2)cc1.[Na+] [3β-(4'-Acetylphenylethynyl)-3α,21-dihidroxy-5α-pregnan-20-one 21-hemisuccinate sodium salt]	–	–	–	–	% Protected ([1]; PO, 10 mg/kg, water): 80%; % Control ([2]; PO, 10 mg/kg, water): 166%
CC(=O)C1CCC2C3CCC4CC(OC(=O)c5cccnc5)CCC4(C)C3CCC12C (stereo not shown) [Example 3-Pyridyl]	–	–	–	–	% Protection ([1]; 60 mg/kg, IP, 20hour): 50(20hour) %
CC(=O)C1CCC2C3CCC4CC(OC(=O)C(C)C)CCC4(C)C3CCC12C (stereo not shown) [Example 2-Propyl]	–	–	–	–	% Protection ([1]; 60 mg/kg, 1hr, IP): 75%
CC(=O)[C@H]1CC[C@H]2[C@@H]3CC[C@@H]4C[C@@](O)(C#CCOc5ccncc5)CC[C@]4(C)[C@H]3CC[C@]12C [3α-Hydroxy-3β-[3-(4'-pyridinyloxy)-1-propynyl]-5β-pregnan-20-one]	465 nM	94%	12.5	–	–
CCC(=O)OC1CCC2(C)C(CCC3C2CCC2(C)C(C(C)=O)CCC32)C1 (stereo not shown) [Ethyl]	–	–	–	–	% Protection ([1]; 60 mg/kg, 1hr, IP): 75%
CC(=O)C1CCC2C3CCC4CC(O)(C#CCC(C)O)CCC4(C)C3CCC12C (racemic) [3β-[4'(R/S) hydroxypentynyl]-3α-hydroxy-5β-pregnan-20-one]	71 nM and 94 nM	103% and 104%	87.5	–	–
CC(=O)[C@H]1CC[C@H]2[C@@H]3CC[C@@H]4C[C@@](O)(C#CCCCC#N)CC[C@]4(C)[C@H]3CC[C@]12C [3β-(5-Cyano-1-pentynyl)-3α-hydroxy-5β-pregnan-20-one]	158 nM	100%	25	–	–
